The NIST ThermoML archive (doi:10.1021/je050460d)
± gives the expanded uncertainty stated by the source.

Columns and labels:
[1] = 101.33 kPa, Liquid; for viscosity: Capillary tube (Ostwald / Ubbelohde) method; for mass density: Vibrating tube method
[2] = refractive index (Na D-line) (dimensionless); conditions: 101.33 kPa, Liquid, Standard Abbe refractometry
[3] = xn = mol fraction of the nth substance listed; conditions: 101 kPa, Liquid, x1 = 1; for viscosity: Capillary tube (Ostwald / Ubbelohde) method; for mass density: Vibrating tube method

Compound	viscosity ([1]; 298.15 K) [mPa·s]	mass density ([1]; 298.15 K) [kg/m3]	mass density ([1]; 303.15 K) [kg/m3]	mass density ([1]; 308.15 K) [kg/m3]	viscosity ([1]; 313.15 K) [mPa·s]	mass density ([1]; 313.15 K) [kg/m3]	mass density ([1]; 318.15 K) [kg/m3]	mass density ([1]; 323.15 K) [kg/m3]	viscosity ([1]; 328.15 K) [mPa·s]	mass density ([1]; 328.15 K) [kg/m3]	mass density ([1]; 333.15 K) [kg/m3]	mass density ([1]; 338.15 K) [kg/m3]	viscosity ([1]; 343.15 K) [mPa·s]	mass density ([1]; 343.15 K) [kg/m3]	refractive index ([2]; 298.15 K)	refractive index ([2]; 303.15 K)	refractive index ([2]; 308.15 K)	refractive index ([2]; 313.15 K)	refractive index ([2]; 318.15 K)	refractive index ([2]; 323.15 K)	other results
CCCCCCn1cc[n+](C)c1.[Cl-] [1-hexyl-3-methylimidazolium chloride]	18089 ± 2400	1039.67 ± 2.7	1036.81 ± 2.7	1033.96 ± 2.7	3429 ± 330	1031.13 ± 2.7	1028.3 ± 2.7	1025.49 ± 2.7	942.1 ± 65	1022.69 ± 2.7	1019.89 ± 2.7	1017.11 ± 2.7	339.5 ± 17	1014.32 ± 2.7	1.5172 ± 0.001	1.5158 ± 0.001	1.51437 ± 0.001	1.51294 ± 0.001	1.51151 ± 0.001	1.51009 ± 0.001	refractive index ([2]; 328.15 K): 1.50868 ± 0.001; refractive index ([2]; 333.15 K): 1.50727 ± 0.001; refractive index ([2]; 338.15 K): 1.50586 ± 0.001; refractive index ([2]; 343.15 K): 1.50445 ± 0.001
CCCCCCCC[n+]1ccn(C)c1.[Cl-] [1-methyl-3-octylimidazolium chloride]	20883 ± 2800	1008.82 ± 2.7	1005.94 ± 2.6	1003.06 ± 2.6	4066 ± 400	1000.2 ± 2.6	997.37 ± 2.6	994.5 ± 2.6	1091 ± 78	991.67 ± 2.6	988.85 ± 2.6	986.04 ± 2.6	387.2 ± 20	983.24 ± 2.6	1.50987 ± 0.001	1.50838 ± 0.001	1.50689 ± 0.001	1.50543 ± 0.001	1.50396 ± 0.001	1.5025 ± 0.001	refractive index ([2]; 328.15 K): 1.50103 ± 0.001; refractive index ([2]; 333.15 K): 1.49956 ± 0.001; refractive index ([2]; 338.15 K): 1.4981 ± 0.001; refractive index ([2]; 343.15 K): 1.49664 ± 0.001
O [water] + CCCCCCCC[n+]1ccn(C)c1.[Cl-]	–	–	–	–	–	–	–	–	–	–	–	–	–	–	–	–	–	–	–	–	viscosity ([3]; 298.15 K): 0.9 ± 0.01 mPa·s; viscosity ([3]; 313.15 K): 0.66 ± 0.01 mPa·s; viscosity ([3]; 328.15 K): 0.52 ± 0.01 mPa·s; mass density ([3]; 328.15 K): 985.68 ± 0.5 kg/m3; viscosity ([3]; 343.15 K): 0.42 ± 0.01 mPa·s; mass density ([3]; 343.15 K): 977.75 ± 0.5 kg/m3
O [water] + CCCCCCn1cc[n+](C)c1.[Cl-]	–	–	–	–	–	–	–	–	–	–	–	–	–	–	–	–	–	–	–	–	viscosity ([3]; 298.15 K): 0.895 ± 0.007 mPa·s; viscosity ([3]; 313.15 K): 0.658 ± 0.006 mPa·s; viscosity ([3]; 328.15 K): 0.519 ± 0.005 mPa·s; mass density ([3]; 328.15 K): 985.68 ± 0.5 kg/m3; viscosity ([3]; 343.15 K): 0.419 ± 0.004 mPa·s; mass density ([3]; 343.15 K): 977.75 ± 0.5 kg/m3
